Assay results taken from PubChem BioAssay AID1963436 (Molecular Pharmacology Branch, DTP, NCI, 2024).
Values joined by “and” are separate entries in the source; they are usually repeats but may differ in a detail not shown here. Identical values can stand only once.

Test system: OVCAR-5 complex spheroid (HUVEC/MSC), viability % T/C
Assay: Anticancer human tumor OVCAR-5 cell line growth inhibition [Asc];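 note: spheroids exposed to agents for 7 days before readout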;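 for viability, T/C: 100% = DMSO vehicle-treated wells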
Details: for viability, T/C: stronger effect = lower value; active = viability on the fitted dose curve at most 10% of control; inactive = the rest
Summary of the method: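 Stromal components (HUVEC and hMSC) are co-assembled with the cancer cells into multicellular spheroids. Drugs are then added singly or paired, at concentrations falling by half-log increments from a clinically achievable maximum, capped at 10 microM without known Cmax.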

[1] = curve of first compound, second compound 0.03 µM
[2] = curve of first compound, second compound 0.0949 µM
[3] = curve of first compound, second compound 0.3 µM
[4] = curve of first compound, second compound 0.949 µM
[5] = curve of first compound, second compound 3 µM

Cn1ncnc1[C@H]1c2n[nH]c(=O)c3cc(F)cc(c23)N[C@@H]1c1ccc(F)cc1 + CCN1C(C(=O)NC23CCC(C(=O)O)(CC2)CC3)C(c2cccc(Cl)c2F)C2(C(=O)Nc3cc(Cl)ccc32)C12CCCCC2
inactive: viability, T/C (second compound 0.03 µM, first compound 0.000316 µM) 108% | viability, T/C (second compound 0.03 µM, first compound 0.001 µM) 108% | viability, T/C (second compound 0.03 µM, first compound 0.00316 µM) 88.9% | viability, T/C (second compound 0.03 µM, first compound 0.01 µM) 94% | viability, T/C (second compound 0.03 µM, first compound 0.0316 µM) 96% | viability, T/C (second compound 0.03 µM, first compound 0.1 µM) 91.1% | viability, T/C (second compound 0.0949 µM, first compound 0.000316 µM) 103% | viability, T/C (second compound 0.0949 µM, first compound 0.001 µM) 109% | viability, T/C (second compound 0.0949 µM, first compound 0.00316 µM) 89.7% | viability, T/C (second compound 0.0949 µM, first compound 0.01 µM) 91% | viability, T/C (second compound 0.0949 µM, first compound 0.0316 µM) 101% | viability, T/C (second compound 0.0949 µM, first compound 0.1 µM) 82.8% | viability, T/C (second compound 0.3 µM, first compound 0.000316 µM) 112% | viability, T/C (second compound 0.3 µM, first compound 0.001 µM) 114% | viability, T/C (second compound 0.3 µM, first compound 0.00316 µM) 102% | viability, T/C (second compound 0.3 µM, first compound 0.01 µM) 80.7% | viability, T/C (second compound 0.3 µM, first compound 0.0316 µM) 98.3% | viability, T/C (second compound 0.3 µM, first compound 0.1 µM) 98.8% | viability, T/C (second compound 0.949 µM, first compound 0.000316 µM) 112% | viability, T/C (second compound 0.949 µM, first compound 0.001 µM) 121% | viability, T/C (second compound 0.949 µM, first compound 0.00316 µM) 106% | viability, T/C (second compound 0.949 µM, first compound 0.01 µM) 97.4% | viability, T/C (second compound 0.949 µM, first compound 0.0316 µM) 106% | viability, T/C (second compound 0.949 µM, first compound 0.1 µM) 88.7% | viability, T/C (second compound 3 µM, first compound 0.000316 µM) 109% | viability, T/C (second compound 3 µM, first compound 0.001 µM) 105% | viability, T/C (second compound 3 µM, first compound 0.00316 µM) 109% | viability, T/C (second compound 3 µM, first compound 0.01 µM) 91.4% | viability, T/C (second compound 3 µM, first compound 0.0316 µM) 106% | viability, T/C (second compound 3 µM, first compound 0.1 µM) 89%
> 100 nM: IC50 [1] | IC50 [2] | IC50 [3] | IC50 [4] | IC50 [5]

C=C(F)C(=O)N1CCN(c2nc(OCC3CCCN3C)nc3c2CCN(c2cccc4cccc(Cl)c24)C3)CC1CC#N (configuration not stated) + CNC(C)C(=O)NC1CN(S(=O)(=O)c2cccc(S(=O)(=O)N3CCC4CCC(C(=O)NC(c5ccccc5)c5ccccc5)N4C(=O)C(NC(=O)C(C)NC)C3)c2)CCC2CCC(C(=O)NC(c3ccccc3)c3ccccc3)N2C1=O
inactive: viability, T/C (second compound 0.01 µM, first compound 0.0316 µM) 105% | viability, T/C (second compound 0.01 µM, first compound 0.1 µM) 93.5% | viability, T/C (second compound 0.01 µM, first compound 0.316 µM) 82.5% | viability, T/C (second compound 0.01 µM, first compound 1 µM) 66.2% | viability, T/C (second compound 0.01 µM, first compound 3.16 µM) 11.3% | viability, T/C (second compound 0.0316 µM, first compound 0.0316 µM) 94.4% | viability, T/C (second compound 0.0316 µM, first compound 0.1 µM) 78.9% | viability, T/C (second compound 0.0316 µM, first compound 0.316 µM) 79% | viability, T/C (second compound 0.0316 µM, first compound 1 µM) 56.7% | viability, T/C (second compound 0.0316 µM, first compound 3.16 µM) 11.6% | viability, T/C (second compound 0.1 µM, first compound 0.0316 µM) 92% | viability, T/C (second compound 0.1 µM, first compound 0.1 µM) 84% | viability, T/C (second compound 0.1 µM, first compound 0.316 µM) 76.9% | viability, T/C (second compound 0.1 µM, first compound 1 µM) 51.2% | viability, T/C (second compound 0.1 µM, first compound 3.16 µM) 10.4% | viability, T/C (second compound 0.316 µM, first compound 0.0316 µM) 90.5% | viability, T/C (second compound 0.316 µM, first compound 0.1 µM) 79.2% | viability, T/C (second compound 0.316 µM, first compound 0.316 µM) 70.4% | viability, T/C (second compound 0.316 µM, first compound 1 µM) 50.3% | viability, T/C (second compound 0.316 µM, first compound 3.16 µM) 9.19% | viability, T/C (second compound 1 µM, first compound 0.0316 µM) 90.3% | viability, T/C (second compound 1 µM, first compound 0.1 µM) 89.5% | viability, T/C (second compound 1 µM, first compound 0.316 µM) 67% | viability, T/C (second compound 1 µM, first compound 1 µM) 46.5% | viability, T/C (second compound 1 µM, first compound 3.16 µM) 10.2%
1150 nM: IC50 (curve of first compound, second compound 0.0316 µM)
active: viability, T/C (second compound 0.01 µM, first compound 10 µM) 0.22% | viability, T/C (second compound 0.0316 µM, first compound 10 µM) 0.16% | viability, T/C (second compound 0.1 µM, first compound 10 µM) 0.18% | viability, T/C (second compound 0.316 µM, first compound 10 µM) 0.16% | viability, T/C (second compound 1 µM, first compound 10 µM) 0.23%
968 nM: IC50 (curve of first compound, second compound 0.1 µM)
740 nM: IC50 (curve of first compound, second compound 1 µM)
1320 nM: IC50 (curve of first compound, second compound 0.01 µM)
844 nM: IC50 (curve of first compound, second compound 0.316 µM)

C#Cc1c(F)ccc2cc(O)cc(-c3ncc4c(N5CC6CCC(C5)N6)nc(OCC56CCCN5CC(F)C6)nc4c3F)c12 (configuration not stated)
7560 nM and 6900 nM and 7160 nM: IC50 (curve of compound)
inactive: viability, T/C (compound 0.0316 µM) 114% and 104% and 101% | viability, T/C (compound 0.1 µM) 112% and 100% and 106% | viability, T/C (compound 0.316 µM) 92.9% and 93.9% and 84.2% | viability, T/C (compound 1 µM) 80.5% and 88.2% and 96.8% | viability, T/C (compound 3.16 µM) 78.7% and 72.7% and 75% | viability, T/C (compound 10 µM) 40.5% and 39.1% and 39.3%

Cc1nc(N2CCC3(CC2)COC(C)C3N)c(CO)nc1Sc1ccnc(N)c1Cl (configuration not stated) + CCN1C(C(=O)NC23CCC(C(=O)O)(CC2)CC3)C(c2cccc(Cl)c2F)C2(C(=O)Nc3cc(Cl)ccc32)C12CCCCC2
> 3000 nM: IC50 [1] | IC50 [2] | IC50 [3] | IC50 [4] | IC50 [5]
inactive: viability, T/C (second compound 0.03 µM, first compound 0.00949 µM) 104% | viability, T/C (second compound 0.03 µM, first compound 0.03 µM) 101% | viability, T/C (second compound 0.03 µM, first compound 0.0949 µM) 79.8% | viability, T/C (second compound 0.03 µM, first compound 0.3 µM) 79.8% | viability, T/C (second compound 0.03 µM, first compound 0.949 µM) 71.4% | viability, T/C (second compound 0.03 µM, first compound 3 µM) 60.6% | viability, T/C (second compound 0.0949 µM, first compound 0.00949 µM) 108% | viability, T/C (second compound 0.0949 µM, first compound 0.03 µM) 97.1% | viability, T/C (second compound 0.0949 µM, first compound 0.0949 µM) 89.4% | viability, T/C (second compound 0.0949 µM, first compound 0.3 µM) 82% | viability, T/C (second compound 0.0949 µM, first compound 0.949 µM) 70.8% | viability, T/C (second compound 0.0949 µM, first compound 3 µM) 56% | viability, T/C (second compound 0.3 µM, first compound 0.00949 µM) 112% | viability, T/C (second compound 0.3 µM, first compound 0.03 µM) 105% | viability, T/C (second compound 0.3 µM, first compound 0.0949 µM) 86.1% | viability, T/C (second compound 0.3 µM, first compound 0.3 µM) 72.4% | viability, T/C (second compound 0.3 µM, first compound 0.949 µM) 64.2% | viability, T/C (second compound 0.3 µM, first compound 3 µM) 60.8% | viability, T/C (second compound 0.949 µM, first compound 0.00949 µM) 107% | viability, T/C (second compound 0.949 µM, first compound 0.03 µM) 105% | viability, T/C (second compound 0.949 µM, first compound 0.0949 µM) 96.3% | viability, T/C (second compound 0.949 µM, first compound 0.3 µM) 73.6% | viability, T/C (second compound 0.949 µM, first compound 0.949 µM) 69.5% | viability, T/C (second compound 0.949 µM, first compound 3 µM) 70.3% | viability, T/C (second compound 3 µM, first compound 0.00949 µM) 104% | viability, T/C (second compound 3 µM, first compound 0.03 µM) 110% | viability, T/C (second compound 3 µM, first compound 0.0949 µM) 99.3% | viability, T/C (second compound 3 µM, first compound 0.3 µM) 79% | viability, T/C (second compound 3 µM, first compound 0.949 µM) 68.4% | viability, T/C (second compound 3 µM, first compound 3 µM) 65.9%
